In PubChem BioAssay (NCI):
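Cultured in 96-well plates, cells were exposed to test compound for 48 hours across five concentrations. GI50 is the concentration that inhibits growth by half. At the TGI there is no net growth.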

Columns and labels:
Test in all cases: growth of human tumour cells (NCI), 48 h
[1] = test system: SF-539 CNS
[2] = test system: A549 NSCLC
[3] = test system: CCRF-CEM leukemia
[4] = test system: TK-10 renal
[5] = test system: UACC-62 melanoma
[6] = test system: HCC-2998 colon
[7] = test system: UO-31 renal
[8] = test system: HOP-92 NSCLC
[9] = test system: SK-OV-3 ovarian
[10] = test system: SF-295 CNS

Row | Compound | GI50 [1] [µM] | TGI [1] [µM] | GI50 [2] [µM] | TGI [2] [µM] | GI50 [3] [µM] | TGI [3] [µM] | GI50 [4] [µM] | TGI [4] [µM] | GI50 [5] [µM] | TGI [5] [µM] | GI50 [6] [µM] | TGI [6] [µM] | GI50 [7] [µM] | TGI [7] [µM] | GI50 [8] [µM] | TGI [8] [µM] | GI50 [9] [µM] | TGI [9] [µM] | GI50 [10] [µM] | TGI [10] [µM]
1 | O=c1c(O)cccc2cc(O)c(O)c(O)c12 | 5.01 | > 100 | > 100 | > 100 | 7.55 | > 100 | 55 | > 100 | 6.4 | > 100 | > 100 | > 100 | 2.54 | > 100 | 19.8 | > 100 | > 100 | > 100 | 5.28 | > 100
2 | CCCCCCCCCCCCCCCC[N+](C)(CCO)Cc1cnc[nH]1 (configuration not stated) | 1.78 | 4.75 | 1.49 | 5.57 | – | – | – | – | – | – | 1.14 | 2.73 | 23 | > 100 | 0.922 | 3.82 | 1.5 | 5.22 | 1.18 | 4.01
3 | CC(=O)[O-].[Mn+3].[O-]c1ccccc1C=NCCN=Cc1ccccc1[O-] | > 100 | > 100 | > 100 | > 100 | 25.1 | > 100 | > 100 | > 100 | > 100 | > 100 | > 100 | > 100 | > 100 | > 100 | > 100 | > 100 | – | – | > 100 | > 100
4 | O=C(c1ccccc1)c1oc2ccc(Br)cc2c1-c1cnn(-c2ccccc2)c1 | – | – | – | – | – | > 100 | – | – | – | > 100 | – | > 100 | – | > 100 | – | > 100 | – | > 100 | – | > 100
5 | N#CC(C#N)N=Nc1ccc(Br)cc1 | 3.57 | 18.3 | 47.9 | > 100 | 1.53 | 10.7 | 4.04 | 43.2 | 1.91 | 10.9 | 8.04 | 33.1 | 1.26 | 7.05 | 0.249 | 1.84 | 22.3 | > 100 | 30.3 | > 100
6 | O=C(Nc1ccccc1O)c1ccc(CNc2ccnc(C(F)(F)F)c2)cc1 | 1.89 | 23.1 | 12 | > 100 | 0.354 | 12.8 | 11.3 | 36 | 1.3 | 17.6 | 10.2 | 26.5 | 2.15 | 14 | 0.699 | 15.4 | 5.41 | 41.7 | 3.16 | 17.1
7 | Cc1[nH]c2ccccc2c1-c1cc(-c2cc(-c3c(C)[nH]c4ccccc34)nc(N)n2)nc(N)n1 | – | > 100 | – | > 100 | – | – | – | > 100 | – | > 100 | – | – | – | > 100 | – | > 100 | – | > 100 | – | > 100
8 | O=[N+]([O-])/C=C/c1cc2ccccc2[nH]1 | – | 25.5 | – | 42.7 | – | 9.61 | – | 32.2 | – | 33.7 | – | – | – | 31.9 | – | 43.5 | – | 32.8 | – | 43.9
9 | CN(C)CCNC(=O)c1cccc2c(Nc3ccc(S(N)(=O)=O)cc3)c3ccccc3nc12 | – | 3.23 | – | 7.29 | – | – | – | – | – | 3.42 | – | 6.92 | – | 7.44 | – | 7.27 | – | 3.59 | – | 8.02
10 | COc1cc(Nc2ncc(F)c(Nc3ccc4c(n3)NC(=O)C(C)(C)O4)n2)cc(OC)c1OC | 0.916 | 9.38 | 4.75 | > 10 | 6.32 | > 10 | 0.677 | > 10 | – | – | > 100 | > 100 | 0.679 | > 10 | 0.302 | 4.85 | – | > 100 | 4.4 | > 10
11 | Cc1nc(-c2ccccc2)cc2c1c(=O)oc1ccccc12 | – | > 100 | – | > 100 | – | > 100 | – | – | – | > 100 | – | > 100 | – | > 100 | – | > 100 | – | > 100 | – | > 100
12 | CN(CCc1ccccn1)c1nc(=[N+](C)C)ss1 | – | > 100 | – | > 100 | – | > 100 | – | > 100 | – | > 100 | – | > 100 | – | > 100 | – | > 100 | – | > 100 | – | > 100
13 | O=Cc1ccc(-c2ccc(-c3nc4ccccc4o3)cc2)s1 | – | – | 70.5 | > 100 | 5.68 | > 100 | 33.6 | 81.3 | 30.7 | 98.8 | 45.2 | > 100 | 38.5 | > 100 | > 100 | > 100 | 30.8 | 99.5 | 24.2 | 87.8
14 | CC(C)C1CC2C(=O)N(c3ccccc3)C(=O)C2c2[nH]c3ccccc3c21 (configuration not stated) | – | 67.5 | – | > 100 | – | 54.3 | – | 97.4 | – | > 100 | – | > 100 | – | 80.4 | – | – | – | 79.4 | – | 65.5
15 | CC1=C(C(=O)NCc2ccccc2)C(c2ccc([N+](=O)[O-])cc2)C(C(=O)NCc2ccccc2)=C(C)N1 | – | > 100 | – | > 100 | – | – | – | > 100 | – | 64.6 | – | > 100 | – | > 100 | – | 73.6 | – | – | – | > 100
16 | CC(C)CC(=O)Nc1n[nH]c2c1CN(C(=O)C1CCN(C)CC1)C2(C)C | 1.78 | 8.99 | 1.15 | > 10 | 0.95 | > 10 | 2.81 | > 10 | – | – | 1.17 | > 10 | > 10 | > 10 | 0.451 | 7.54 | 2.53 | > 10 | 1.35 | > 10
17 | COc1cc2c(cc1OC)C(OC)N(C)c1c-2ccc2cc3c(cc12)OCO3 (configuration not stated) | – | 4.69 | – | – | – | 13.4 | – | > 75 | – | 3.08 | – | 5.73 | – | 74.7 | – | 5.76 | – | 2.53 | – | > 75
